Molecules are shown by their SMILES.

These results are taken from publication PMC12086749, “Design, synthesis, and evaluation of peptide‐imidazo[1,2‐a]pyrazine bioconjugates as potential bivalent inhibitors of the VirB11 ATPase HP0525” (Journal of Peptide Science, 2021).

The assay has as its target VirB11 ATPase HP0525 (Helicobacter pylori, UniProt Q7BK04). Briefly: in vitro ATPase colorimetric assay of HP0525. It counts as biochemical. Particulars: for inhibition of HP0525 (in words): qualitative statement. Here is the method:
The HP0525 protein was produced in the E. coli strain BL21 Star (DE3) (Invitrogen) as described previously.[39] The protein concentration was estimated spectroscopically using a NanoDrop (Thermo Scientific) and a calculated extinction coefficient at 280 nm, based on the amino acid composition. The ATPase activity of HP0525 was measured, with and without a specific amount of compound present, using an in vitro ATPase colorimetric assay kit (Innova Biosciences). The assay was performed in 96‐well ELISA microplates (Greiner Bio‐One), using a multipipette/robot.
A volume of 49 μl of a substrate/buffer solution (200 mM tris(hydroxymethyl)aminomethane [TRIS], pH 7.5; 5 mM MgCl2; 250 μM ATP; and 10% DMSO) was added to each assigned well, followed by the addition of 1 μl of compound (at 0.5; 5 or 50 mM to achieve the final concentrations of 5; 50 and 500 μM in the reaction, respectively) in DMSO (or 1 μl DMSO to controls). The solutions were mixed carefully by pipetting. The reaction was started by the addition of 50 μl of 0.106 μM HP0525 to each well (except the negative control, see text below), and the reaction plate was directly transferred to 37°C for 30 min of incubation. The reaction was stopped by the addition of the gold mix according to the standard protocol of the kit. The absorbance at 620 nm was measured after 30 min at RT. For each compound, the percentage of absorbance relative to non‐inhibited HP0525 was calculated, after subtracting the absorbance value of the negative control. In the negative control, the protein was added after the gold mix, as described in the standard protocol of the kit, which when used as a blank corrects for all free Pi not produced by the enzyme during the 30 min incubation at 37°C. A known inhibitor of HP0525 (CHIR02)[26] was used as a control inhibitor. All measurements were made in duplicate.
Each compound was screened on three separate plates, and each plate was read twice, and a mean was calculated for each concentration. The data were normalized by subtracting the negative control (0% active) and relating it to the positive control (100% active). The software GraphPad Prism 5 was used to generate two dose–response curves (Log [inhibitor] vs. normalized response [standard and variable slope]), and the IC50 values were calculated from each.

Sequence of VirB11 ATPase HP0525 (Q7BK04 entry or part of it): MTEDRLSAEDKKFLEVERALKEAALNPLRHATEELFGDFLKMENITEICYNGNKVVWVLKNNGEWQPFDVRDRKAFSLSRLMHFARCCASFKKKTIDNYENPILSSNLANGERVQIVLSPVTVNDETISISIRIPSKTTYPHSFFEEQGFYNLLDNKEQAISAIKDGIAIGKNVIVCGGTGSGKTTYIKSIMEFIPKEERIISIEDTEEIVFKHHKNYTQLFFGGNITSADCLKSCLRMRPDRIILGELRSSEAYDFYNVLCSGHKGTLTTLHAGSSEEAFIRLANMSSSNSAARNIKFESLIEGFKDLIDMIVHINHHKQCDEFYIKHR

In general, IC50 refers to the concentration needed to halve the response being measured. Read a low IC50 as higher potency. For the compound `C=CCOCCOC(=O)Nc1ccc(S(=O)(=O)Nc2nccn3cc(-c4ccc5ccccc5c4)nc23)cc1` [Compound 15], inhibition was half-maximal at 46 µM (IC50) and the “inhibition of HP0525 (in words)” value is recorded as “improved inhibition”.
In the same order, the values of `C#CCOCCOC(=O)Nc1ccc(S(=O)(=O)Nc2nccn3cc(-c4ccc5ccccc5c4)nc23)cc1` [Compound 16] are 61 µM and “improved inhibition”.
The corresponding values for `O=C(CCN1C(=O)C=CC1=O)NCCOCCOC(=O)Nc1ccc(S(=O)(=O)Nc2nccn3cc(-c4ccc5ccccc5c4)nc23)cc1` [Compound 17] are 18 µM and “improved inhibition”.
Take `NCCOCCOC(=O)Nc1ccc(S(=O)(=O)Nc2nccn3cc(-c4ccc5ccccc5c4)nc23)cc1` [Compound 27]: inhibition was half-maximal at 137 µM (IC50) and the “inhibition of HP0525 (in words)” value is “poor inhibition”.
